Biological target: T1, His6-PraR (Azorhizobium caulinodans, UniProt A8IG10)
T1 construct: full praR ORF, N-terminal His6 tag (pCold I, plasmid pTAC99), expressed in E. coli BLR(DE3), Ni-bead purified
Assay: EMSA, FITC-labelled reb promoter dsDNA probe
Settings: inhibits PraR binding to reb promoter DNA; 2OG 0.01 to 10 mM; pH 8.0, 5 mM MgCl2, 26 °C; direct 2OG binding to PraR not measured

T1 sequence (A8IG10 entry or part of it): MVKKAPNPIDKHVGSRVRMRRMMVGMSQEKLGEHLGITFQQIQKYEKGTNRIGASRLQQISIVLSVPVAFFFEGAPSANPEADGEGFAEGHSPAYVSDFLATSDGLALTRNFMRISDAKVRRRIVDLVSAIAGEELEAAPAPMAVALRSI

SMILES: O=C(O)CCC(=O)C(=O)O [2-oxoglutarate]
- EMSA, FITC-labelled reb promoter dsDNA probe: binding of PraR to the reb promoter dsDNA probe decreased with increasing 2OG concentration

Reference: article PMC5527310, “Stringent Expression Control of Pathogenic R-body Production in Legume Symbiont Azorhizobium caulinodans” (mBio, 2017)
